Columns and labels:
Assay in all cases: relative viability (nuclei count vs DMSO), 5 days (fraction); higher = more cells survive
SK-MES-1 = tested on: SK-MES-1
Procedure, shortened: (§1)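 Relative viability divides the nuclei count in treated wells by that in vehicle wells. Lung cancer cell lines were seeded in 1536-well plates, dosed by pin tool the next day, and fixed and stained after 5 days in one step with final 0.05% Triton X-100, 1% formaldehyde and 1 ug/ml Hoechst. Dosing was a single drug or a fixed anchor-drug dose plus five library-drug doses (not always all listed) in √10 steps, and values are medians of duplicate plates imaged at 4×.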

ABC-1 = tested on: ABC-1
Procedure, shortened: as §1

COR-L23 = tested on: COR-L23
Procedure, shortened: as §1

HCC-827 = tested on: HCC-827
Procedure, shortened: as §1

LC-2-ad = tested on: LC-2-ad
Procedure, shortened: as §1

HCC-366 = tested on: HCC-366
Procedure, shortened: as §1

UMC-11 = tested on: UMC-11
Procedure, shortened: as §1

NCI-H1975 = tested on: NCI-H1975
Procedure, shortened: as §1

NCI-H661 = tested on: NCI-H661
Procedure, shortened: as §1

NCI-H2085 = tested on: NCI-H2085
Procedure, shortened: as §1

HCC-15 = tested on: HCC-15
Procedure, shortened: as §1

PC-14 = tested on: PC-14
Procedure, shortened: as §1

NCI-H2009 = tested on: NCI-H2009
Procedure, shortened: as §1

NCI-H2228 = tested on: NCI-H2228
Procedure, shortened: as §1

NCI-H1666 = tested on: NCI-H1666
Procedure, shortened: as §1

NCI-H2087 = tested on: NCI-H2087
Procedure, shortened: as §1

LCLC-103H = tested on: LCLC-103H
Procedure, shortened: as §1

H3255 = tested on: H3255
Procedure, shortened: as §1

NCI-H1437 = tested on: NCI-H1437
Procedure, shortened: as §1

LXF-289 = tested on: LXF-289
Procedure, shortened: as §1

NCI-H2342 = tested on: NCI-H2342
Procedure, shortened: as §1

PC-3 [JPC-3] = tested on: PC-3 [JPC-3]
Procedure, shortened: as §1

NCI-H23 = tested on: NCI-H23
Procedure, shortened: as §1

Cc1cn(-c2cc(NC(=O)c3ccc(C)c(Nc4nccc(-c5cccnc5)n4)c3)cc(C(F)(F)F)c2)cn1 [Nilotinib] + COc1cc2c(Oc3ccc(NC(=O)C4(C(=O)Nc5ccc(F)cc5)CC4)cc3F)ccnc2cc1OCCCN1CCOCC1 [Foretinib] (partner 0.25 µM)
relative viability (SK-MES-1; first compound 0.003162 µM): 1.13 | relative viability (SK-MES-1; first compound 0.01 µM): 1.23 | relative viability (SK-MES-1; first compound 0.03162 µM): 0.904 | relative viability (SK-MES-1; first compound 0.1 µM): 0.963 | relative viability (ABC-1; first compound 0.001 µM): 0.963 | relative viability (ABC-1; first compound 0.003162 µM): 1.32 | relative viability (ABC-1; first compound 0.01 µM): 1.17 | relative viability (ABC-1; first compound 0.03162 µM): 0.918 | relative viability (ABC-1; first compound 0.1 µM): 1.32 | relative viability (COR-L23; first compound 0.001 µM): 0.853 | relative viability (COR-L23; first compound 0.003162 µM): 1.28 | relative viability (COR-L23; first compound 0.01 µM): 1.13 | relative viability (COR-L23; first compound 0.03162 µM): 0.821 | relative viability (COR-L23; first compound 0.1 µM): 0.924 | relative viability (HCC-827; first compound 0.003162 µM): 1.13 | relative viability (HCC-827; first compound 0.01 µM): 1.06 | relative viability (HCC-827; first compound 0.03162 µM): 0.939 | relative viability (HCC-827; first compound 0.1 µM): 0.938 | relative viability (LC-2-ad; first compound 0.001 µM): 0.912 | relative viability (LC-2-ad; first compound 0.003162 µM): 1.08 | relative viability (LC-2-ad; first compound 0.01 µM): 0.963 | relative viability (LC-2-ad; first compound 0.03162 µM): 0.827 | relative viability (LC-2-ad; first compound 0.1 µM): 0.804 | relative viability (HCC-366; first compound 0.001 µM): 0.959 | relative viability (HCC-366; first compound 0.003162 µM): 1.08 | relative viability (HCC-366; first compound 0.01 µM): 1.17 | relative viability (HCC-366; first compound 0.03162 µM): 0.916 | relative viability (HCC-366; first compound 0.1 µM): 0.953 | relative viability (UMC-11; first compound 0.001 µM): 0.896 | relative viability (UMC-11; first compound 0.003162 µM): 1.18 | relative viability (UMC-11; first compound 0.01 µM): 1.23 | relative viability (UMC-11; first compound 0.1 µM): 1.17 | relative viability (NCI-H1975; first compound 0.001 µM): 0.956 | relative viability (NCI-H1975; first compound 0.003162 µM): 1.12 | relative viability (NCI-H1975; first compound 0.01 µM): 1.02 | relative viability (NCI-H1975; first compound 0.03162 µM): 0.74 | relative viability (NCI-H1975; first compound 0.1 µM): 0.957 | relative viability (NCI-H661; first compound 0.001 µM): 1.03 | relative viability (NCI-H661; first compound 0.003162 µM): 1.18 | relative viability (NCI-H661; first compound 0.03162 µM): 0.919 | relative viability (NCI-H661; first compound 0.1 µM): 0.9 | relative viability (NCI-H2085; first compound 0.001 µM): 0.919 | relative viability (NCI-H2085; first compound 0.003162 µM): 1.09 | relative viability (NCI-H2085; first compound 0.01 µM): 1.17 | relative viability (NCI-H2085; first compound 0.03162 µM): 0.84 | relative viability (NCI-H2085; first compound 0.1 µM): 0.801 | relative viability (HCC-15; first compound 0.001 µM): 0.975 | relative viability (HCC-15; first compound 0.003162 µM): 1.25 | relative viability (HCC-15; first compound 0.01 µM): 1.09 | relative viability (HCC-15; first compound 0.03162 µM): 0.858 | relative viability (HCC-15; first compound 0.1 µM): 0.754 | relative viability (PC-14; first compound 0.001 µM): 0.974 | relative viability (PC-14; first compound 0.003162 µM): 1.11 | relative viability (PC-14; first compound 0.01 µM): 1.07 | relative viability (PC-14; first compound 0.03162 µM): 0.845 | relative viability (PC-14; first compound 0.1 µM): 0.928 | relative viability (NCI-H2009; first compound 0.001 µM): 1.12 | relative viability (NCI-H2009; first compound 0.003162 µM): 1.41 | relative viability (NCI-H2009; first compound 0.01 µM): 1.32 | relative viability (NCI-H2009; first compound 0.03162 µM): 1.16 | relative viability (NCI-H2009; first compound 0.1 µM): 1.1 | relative viability (NCI-H2228; first compound 0.003162 µM): 0.99 | relative viability (NCI-H2228; first compound 0.01 µM): 1.06 | relative viability (NCI-H2228; first compound 0.03162 µM): 0.549 | relative viability (NCI-H2228; first compound 0.1 µM): 0.8 | relative viability (NCI-H1666; first compound 0.001 µM): 0.929 | relative viability (NCI-H1666; first compound 0.003162 µM): 0.996 | relative viability (NCI-H1666; first compound 0.03162 µM): 0.911 | relative viability (NCI-H1666; first compound 0.1 µM): 1.07 | relative viability (NCI-H2087; first compound 0.001 µM): 1.03 | relative viability (NCI-H2087; first compound 0.003162 µM): 1.16 | relative viability (NCI-H2087; first compound 0.01 µM): 1.27 | relative viability (NCI-H2087; first compound 0.03162 µM): 0.83 | relative viability (NCI-H2087; first compound 0.1 µM): 0.761 | relative viability (LCLC-103H; first compound 0.001 µM): 0.737 | relative viability (LCLC-103H; first compound 0.003162 µM): 0.86 | relative viability (LCLC-103H; first compound 0.01 µM): 0.837 | relative viability (LCLC-103H; first compound 0.03162 µM): 0.581 | relative viability (LCLC-103H; first compound 0.1 µM): 0.67 | relative viability (H3255; first compound 0.001 µM): 0.943 | relative viability (H3255; first compound 0.003162 µM): 1.06 | relative viability (H3255; first compound 0.03162 µM): 0.845 | relative viability (H3255; first compound 0.1 µM): 0.296 | relative viability (NCI-H1437; first compound 0.001 µM): 1.2 | relative viability (NCI-H1437; first compound 0.003162 µM): 1.39 | relative viability (NCI-H1437; first compound 0.01 µM): 1.26 | relative viability (NCI-H1437; first compound 0.03162 µM): 1.03 | relative viability (NCI-H1437; first compound 0.1 µM): 1.27 | relative viability (LXF-289; first compound 0.001 µM): 0.968 | relative viability (LXF-289; first compound 0.003162 µM): 1.16 | relative viability (LXF-289; first compound 0.03162 µM): 0.893 | relative viability (LXF-289; first compound 0.1 µM): 0.761 | relative viability (NCI-H2342; first compound 0.001 µM): 0.968 | relative viability (NCI-H2342; first compound 0.003162 µM): 1.1 | relative viability (NCI-H2342; first compound 0.03162 µM): 0.979 | relative viability (NCI-H2342; first compound 0.1 µM): 1 | relative viability (PC-3 [JPC-3]; first compound 0.001 µM): 1.03 | relative viability (PC-3 [JPC-3]; first compound 0.003162 µM): 1.16 | relative viability (PC-3 [JPC-3]; first compound 0.01 µM): 1.25 | relative viability (PC-3 [JPC-3]; first compound 0.03162 µM): 0.967 | relative viability (PC-3 [JPC-3]; first compound 0.1 µM): 0.863 | relative viability (NCI-H23; first compound 0.001 µM): 1.06 | relative viability (NCI-H23; first compound 0.003162 µM): 1.13 | relative viability (NCI-H23; first compound 0.01 µM): 1.02 | relative viability (NCI-H23; first compound 0.03162 µM): 0.79 | relative viability (NCI-H23; first compound 0.1 µM): 0.658

Source: the supplement of paper PMC10307832
